Assay results as given in BindingDB's records for doi:10.7270/Q2CN728N (Nmmlsc, 2008).

Target: T1, Bcl-2-related protein A1 (Homo sapiens, UniProt Q16548)
T1 sequence (Q16548 whole entry): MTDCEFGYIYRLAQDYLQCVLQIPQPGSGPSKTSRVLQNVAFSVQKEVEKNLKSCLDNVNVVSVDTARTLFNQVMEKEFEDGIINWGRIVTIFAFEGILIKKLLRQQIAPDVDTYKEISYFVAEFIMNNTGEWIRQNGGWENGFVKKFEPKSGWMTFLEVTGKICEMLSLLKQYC
Assay: inhibitors of Bim binding to Bfl-1, dose response, biochemical, multiplexed, bead-based flow cytometry (AID 1320)
Conditions: inactive by the depositor's call; pH 7.4; 4 °C

Compound | EC50
O=C(Nc1nnc(COc2ccc(Cl)cc2)s1)c1ccco1 [N-[5-[(4-chloranylphenoxy)methyl]-1,3,4-thiadiazol-2-yl]furan-2-carboxamide] | 8.07 µM
Cc1cccc(OCC(=O)NCC(=O)NN=Cc2cc(Br)ccc2OCc2ccccc2)c1 [N-[(5-bromanyl-2-phenylmethoxy-phenyl)methylideneamino]-2-[2-(3-methylphenoxy)ethanoylamino]ethanamide] | 4.63 µM
Nc1ccccc1/N=c1/ssnc1Cl [N-[(5Z)-4-chloro-5H-1,2,3-dithiazol-5-ylidene]benzene-1,2-diamine] | 4.72 µM
CC(C)C(=O)NC(c1ccccc1)c1cc([N+](=O)[O-])c2cccnc2c1O (configuration not stated) [N-[(8-hydroxy-5-nitro-7-quinolinyl)-phenylmethyl]-2-methylpropanamide] | 26.5 µM
Cc1onc(-c2ccccc2)c1C(=O)Nc1nnc(COc2ccc(Cl)cc2)s1 [N-{5-[(4-chlorophenoxy)methyl]-1,3,4-thiadiazol-2-yl}-5-methyl-3-phenyl-4-isoxazolecarboxamide] | 4.36 µM
Cc1ccc(-c2cc(-c3ccc4c(c3)OCO4)c(C#N)c(N)n2)o1 [SMR000001529] | 1.88 µM
CSc1nnc2c3cc(C)ccc3n(Cc3ccccc3)c2n1 [SMR000046397] | 22.7 µM
NC(=O)c1c(N)sc2c1CCCCC2 [SMR000066289] | 3.02 µM
Nc1c(C(=O)NCc2ccco2)sc2nc3c(cc12)C(=O)CCC3 [SMR000072940] | 57.3 µM
CN(C)c1ccc(Nc2nc(-c3cccnc3)cs2)cc1 [SMR000104797] | 0.85 µM
CNC(=O)c1c(N)sc2c1CCCCC2 [SMR000111700] | 4.09 µM
CNc1ccc(Br)cc(C(=O)/C=C/c2cc(OC)ccc2OC)c1=O [SMR000115626] | 15 µM
O=C(Nc1ccc2nc(-c3ccco3)c(-c3ccco3)nc2c1)NC1CC1 [SMR000118524] | 3.9 µM
O=C(NCCO)c1ccc2nc(-c3ccco3)c(-c3ccco3)nc2c1 [SMR000121771] | 3.18 µM
N#Cc1ccc(/N=c2/ssnc2Cl)cc1 [SMR000130044] | 67.5 µM

Same assay, conditions: pH 7.4; 4 °C

Compound | EC50
COc1ccccc1NC1=C(NC(C)=O)C(=O)c2ccccc2C1=O [N-[3-(2-methoxyanilino)-1,4-dioxonaphthalen-2-yl]acetamide] | 1.41 µM
O=C(NC1=C(NC2CCS(=O)(=O)C2)C(=O)c2ccccc2C1=O)c1ccccc1 (configuration not stated) [N-[3-[(1,1-dioxo-3-thiolanyl)amino]-1,4-dioxo-2-naphthalenyl]benzamide] | 6.59 µM
CC(=O)NC1=C(NC2CCS(=O)(=O)C2)C(=O)c2ccccc2C1=O (configuration not stated) [N-[3-[(1,1-dioxothiolan-3-yl)amino]-1,4-dioxonaphthalen-2-yl]acetamide] | 1.55 µM
Cc1cccc(C(=O)/N=c2\c(C#N)cc3c(=O)n4cccc(C)c4nc3n2Cc2ccco2)c1 [N-[3-cyano-1-(furan-2-ylmethyl)-10-methyl-5-oxodipyrido[3,4-c:1',2'-f]pyrimidin-2-ylidene]-3-methylbenzamide] | 9.69 µM
COc1cc(CNc2ccc(N3CCCC3)cc2)cc(Cl)c1OC [N-[(3-chloranyl-4,5-dimethoxy-phenyl)methyl]-4-pyrrolidin-1-yl-aniline] | 5.3 µM
CCC(=O)N(CC)C1C(=O)C(=O)c2ccccc2C1=O (configuration not stated) [N-ethyl-N-(1-hydroxy-3,4-dioxo-2-naphthalenyl)propanamide] | 0.08 µM
CC(C)(C)NC(=O)COc1ccc(CNc2ccc3[nH]c(O)nc3c2)cc1 [N-tert-butyl-2-[4-[[(2-oxidanylidene-1,3-dihydrobenzimidazol-5-yl)amino]methyl]phenoxy]ethanamide] | 2.87 µM
COc1cc(/N=c2/ssnc2Cl)cc(OC)c1OC [SMR000025034] | 3.63 µM
Cc1cc2nn(-c3cccc4ccccc34)nc2cc1N [SMR000076237] | 1.34 µM
COc1cc(/N=c2/ssnc2Cl)c(OC)cc1Cl [SMR000130043] | 6.53 µM
CCC(=O)OCCNc1cc(Sc2nc3ccccc3s2)c2nonc2c1[N+](=O)[O-] [SMR000131460] | 0.08 µM
CCOC(=O)C1=C(Cc2ccc(OC)cc2)C(=O)c2ccccc2C1=O [SMR000136995] | 5.04 µM
